Measurements reported in PMC9942948 (Journal of medicinal chemistry, 2022).
pIC50: −log10 of the molar value.

Key:
WT Polθ = WT Polθ (Homo sapiens, UniProt O75417); assay: Differential Scanning Fluorimetry; assay type: binding; conditions: compound alone, no DNA
[1] = Mouse liver microsomal stability; assay type: in vitro ADME; conditions: liver microsomes
[2] = Metabolite identification in mouse microsomes; assay type: in vitro ADME
[3] = Metabolite identification in human microsomes; assay type: in vitro ADME
[4] = target: full-length Polθ (aa 1–2590), ATPase activity (Homo sapiens, UniProt O75417); assay: Full-length Polθ ATPase activity; assay type: biochemical
[5] = tested on: Polθ-mediated MMEJ repair at AAVS1 locus in HCT116 WT cells; assay: Cas9-induced double-strand DNA break assay; assay type: cell-based; conditions: Homo sapiens, HCT-116, read-out: potency in DSB repair of AAVS1 loci
[6] = tested on: MMEJ in 293T-Lig4−/−TLR1.1 cells; assay: Traffic-light reporter assay; assay type: cell-based, human; conditions: HEK293 LIG4−/− cell line
in vitro = in vitro ADME, canine; conditions: dog, MDCK
[7] = Mouse PK, iv/po in CD1 mice; assay type: in vivo; conditions: female, whole blood, 2.5 mg/kg
[8] = tested on: HCT116 BRCA2+/+ xenograft tumors; assay: HCT116 BRCA2+/+ xenograft efficacy; assay type: in vivo, mouse; conditions: 80 mg/kg BID PO, 21 days
[9] = tested on: HCT116 BRCA2−/− xenograft tumors; assay: HCT116 BRCA2−/− xenograft efficacy; assay type: in vivo, mouse; conditions: 80 mg/kg BID PO, BRCA2-deficient HCT116
[10] = Tolerability in the xenograft study; assay type: in vivo
[11] = PK on days 1 and 7 of BID oral dosing in CD-1 nude mice; assay type: in vivo; conditions: Day 7 vs Day 1, BID oral
[12] = tested on: HCT116 BRCA2−/− xenograft tumor cells; assay: PD markers by immunofluorescence in cells isolated from tumors; assay type: in vivo, mouse
Pol ε = Pol ε (Homo sapiens, UniProt Q07864); assay: DNA polymerase selectivity, Pol ε
Pol λ = target: T1, Pol λ (Homo sapiens, UniProt Q9UGP5); assay: DNA polymerase selectivity, Pol λ
T1 sequence (Q9UGP5 1-575): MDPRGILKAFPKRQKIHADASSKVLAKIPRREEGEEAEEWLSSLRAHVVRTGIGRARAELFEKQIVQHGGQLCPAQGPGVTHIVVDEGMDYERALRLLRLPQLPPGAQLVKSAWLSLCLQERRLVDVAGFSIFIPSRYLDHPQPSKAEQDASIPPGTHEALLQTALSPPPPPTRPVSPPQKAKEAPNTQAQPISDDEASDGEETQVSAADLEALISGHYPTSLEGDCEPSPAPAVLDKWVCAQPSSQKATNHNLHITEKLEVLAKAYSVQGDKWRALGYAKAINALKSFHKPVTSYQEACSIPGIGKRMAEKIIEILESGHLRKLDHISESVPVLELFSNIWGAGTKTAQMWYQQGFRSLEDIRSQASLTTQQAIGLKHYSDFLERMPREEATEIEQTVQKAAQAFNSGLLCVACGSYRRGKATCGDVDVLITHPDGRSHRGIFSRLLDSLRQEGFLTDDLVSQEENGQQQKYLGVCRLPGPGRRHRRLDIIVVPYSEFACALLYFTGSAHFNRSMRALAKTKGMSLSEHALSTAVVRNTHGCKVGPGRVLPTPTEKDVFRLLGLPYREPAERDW

Pol μ = Pol μ (Homo sapiens, UniProt Q9NP87); assay: DNA polymerase selectivity, Pol μ
[13] = nude mice, 80 mg/kg BID PO, 21 days

Chain of WT Polθ (O75417 whole entry): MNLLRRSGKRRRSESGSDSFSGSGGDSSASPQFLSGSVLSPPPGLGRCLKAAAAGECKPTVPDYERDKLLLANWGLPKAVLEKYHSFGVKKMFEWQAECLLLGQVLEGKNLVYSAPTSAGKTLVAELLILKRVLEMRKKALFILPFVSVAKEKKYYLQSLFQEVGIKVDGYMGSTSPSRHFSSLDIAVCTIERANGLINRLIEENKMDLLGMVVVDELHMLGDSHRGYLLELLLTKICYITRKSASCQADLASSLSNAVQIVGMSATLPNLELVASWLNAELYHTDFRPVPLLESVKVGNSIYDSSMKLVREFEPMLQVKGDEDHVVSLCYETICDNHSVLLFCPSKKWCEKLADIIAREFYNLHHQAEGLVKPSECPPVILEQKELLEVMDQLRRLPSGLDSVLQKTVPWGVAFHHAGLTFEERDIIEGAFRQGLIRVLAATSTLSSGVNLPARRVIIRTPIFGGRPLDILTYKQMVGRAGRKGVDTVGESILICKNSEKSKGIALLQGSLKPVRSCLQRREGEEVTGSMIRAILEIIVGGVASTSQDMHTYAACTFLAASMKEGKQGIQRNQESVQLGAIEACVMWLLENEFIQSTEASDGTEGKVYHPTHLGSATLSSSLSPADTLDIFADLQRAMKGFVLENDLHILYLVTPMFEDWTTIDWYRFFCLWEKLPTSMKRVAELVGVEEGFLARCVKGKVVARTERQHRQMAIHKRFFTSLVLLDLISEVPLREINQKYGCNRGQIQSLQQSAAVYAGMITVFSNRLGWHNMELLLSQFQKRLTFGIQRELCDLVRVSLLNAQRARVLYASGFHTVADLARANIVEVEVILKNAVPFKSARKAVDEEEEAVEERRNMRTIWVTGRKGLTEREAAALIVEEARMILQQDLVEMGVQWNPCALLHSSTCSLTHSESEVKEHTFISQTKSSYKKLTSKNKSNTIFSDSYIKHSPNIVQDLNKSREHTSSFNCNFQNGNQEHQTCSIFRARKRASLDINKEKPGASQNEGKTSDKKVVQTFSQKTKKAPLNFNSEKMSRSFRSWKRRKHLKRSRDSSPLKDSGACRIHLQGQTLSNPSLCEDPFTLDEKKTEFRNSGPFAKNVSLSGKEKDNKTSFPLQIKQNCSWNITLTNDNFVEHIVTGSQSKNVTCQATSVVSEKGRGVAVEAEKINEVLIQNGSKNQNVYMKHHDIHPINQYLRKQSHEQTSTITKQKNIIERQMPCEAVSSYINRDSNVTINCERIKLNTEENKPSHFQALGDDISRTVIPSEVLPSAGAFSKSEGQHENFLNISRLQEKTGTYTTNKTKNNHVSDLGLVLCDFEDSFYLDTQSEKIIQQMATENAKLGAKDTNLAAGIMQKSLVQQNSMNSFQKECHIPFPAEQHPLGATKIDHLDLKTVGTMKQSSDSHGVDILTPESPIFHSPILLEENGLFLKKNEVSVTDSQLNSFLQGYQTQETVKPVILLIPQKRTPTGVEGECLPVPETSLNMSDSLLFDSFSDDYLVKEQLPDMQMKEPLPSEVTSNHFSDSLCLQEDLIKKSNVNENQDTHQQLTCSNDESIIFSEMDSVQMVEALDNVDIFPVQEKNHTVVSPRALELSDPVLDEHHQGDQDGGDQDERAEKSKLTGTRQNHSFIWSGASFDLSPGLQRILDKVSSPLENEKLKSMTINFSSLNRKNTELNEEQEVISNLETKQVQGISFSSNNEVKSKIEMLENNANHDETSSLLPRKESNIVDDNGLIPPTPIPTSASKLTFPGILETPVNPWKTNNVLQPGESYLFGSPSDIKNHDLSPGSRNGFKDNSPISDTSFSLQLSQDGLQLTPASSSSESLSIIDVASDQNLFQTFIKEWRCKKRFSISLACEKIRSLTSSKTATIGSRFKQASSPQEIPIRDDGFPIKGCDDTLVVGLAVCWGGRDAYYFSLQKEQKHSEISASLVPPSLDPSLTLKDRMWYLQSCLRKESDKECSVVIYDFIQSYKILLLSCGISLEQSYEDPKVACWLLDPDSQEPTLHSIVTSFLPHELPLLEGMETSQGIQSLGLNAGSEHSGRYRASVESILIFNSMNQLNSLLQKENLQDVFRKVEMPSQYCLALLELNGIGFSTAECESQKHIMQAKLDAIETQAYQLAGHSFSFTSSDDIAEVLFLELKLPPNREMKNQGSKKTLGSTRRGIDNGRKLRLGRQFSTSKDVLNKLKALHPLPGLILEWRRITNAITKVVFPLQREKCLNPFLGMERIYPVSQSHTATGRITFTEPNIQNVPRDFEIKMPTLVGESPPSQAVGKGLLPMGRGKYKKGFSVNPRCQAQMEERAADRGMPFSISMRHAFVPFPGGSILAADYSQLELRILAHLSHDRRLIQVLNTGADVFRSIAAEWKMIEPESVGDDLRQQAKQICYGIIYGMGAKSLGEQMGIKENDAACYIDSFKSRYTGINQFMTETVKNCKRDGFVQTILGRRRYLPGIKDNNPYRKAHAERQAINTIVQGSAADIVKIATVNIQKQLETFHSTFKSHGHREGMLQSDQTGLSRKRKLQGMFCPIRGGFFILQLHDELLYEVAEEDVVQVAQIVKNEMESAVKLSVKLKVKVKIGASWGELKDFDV
Chain of Pol ε (Q07864 whole entry): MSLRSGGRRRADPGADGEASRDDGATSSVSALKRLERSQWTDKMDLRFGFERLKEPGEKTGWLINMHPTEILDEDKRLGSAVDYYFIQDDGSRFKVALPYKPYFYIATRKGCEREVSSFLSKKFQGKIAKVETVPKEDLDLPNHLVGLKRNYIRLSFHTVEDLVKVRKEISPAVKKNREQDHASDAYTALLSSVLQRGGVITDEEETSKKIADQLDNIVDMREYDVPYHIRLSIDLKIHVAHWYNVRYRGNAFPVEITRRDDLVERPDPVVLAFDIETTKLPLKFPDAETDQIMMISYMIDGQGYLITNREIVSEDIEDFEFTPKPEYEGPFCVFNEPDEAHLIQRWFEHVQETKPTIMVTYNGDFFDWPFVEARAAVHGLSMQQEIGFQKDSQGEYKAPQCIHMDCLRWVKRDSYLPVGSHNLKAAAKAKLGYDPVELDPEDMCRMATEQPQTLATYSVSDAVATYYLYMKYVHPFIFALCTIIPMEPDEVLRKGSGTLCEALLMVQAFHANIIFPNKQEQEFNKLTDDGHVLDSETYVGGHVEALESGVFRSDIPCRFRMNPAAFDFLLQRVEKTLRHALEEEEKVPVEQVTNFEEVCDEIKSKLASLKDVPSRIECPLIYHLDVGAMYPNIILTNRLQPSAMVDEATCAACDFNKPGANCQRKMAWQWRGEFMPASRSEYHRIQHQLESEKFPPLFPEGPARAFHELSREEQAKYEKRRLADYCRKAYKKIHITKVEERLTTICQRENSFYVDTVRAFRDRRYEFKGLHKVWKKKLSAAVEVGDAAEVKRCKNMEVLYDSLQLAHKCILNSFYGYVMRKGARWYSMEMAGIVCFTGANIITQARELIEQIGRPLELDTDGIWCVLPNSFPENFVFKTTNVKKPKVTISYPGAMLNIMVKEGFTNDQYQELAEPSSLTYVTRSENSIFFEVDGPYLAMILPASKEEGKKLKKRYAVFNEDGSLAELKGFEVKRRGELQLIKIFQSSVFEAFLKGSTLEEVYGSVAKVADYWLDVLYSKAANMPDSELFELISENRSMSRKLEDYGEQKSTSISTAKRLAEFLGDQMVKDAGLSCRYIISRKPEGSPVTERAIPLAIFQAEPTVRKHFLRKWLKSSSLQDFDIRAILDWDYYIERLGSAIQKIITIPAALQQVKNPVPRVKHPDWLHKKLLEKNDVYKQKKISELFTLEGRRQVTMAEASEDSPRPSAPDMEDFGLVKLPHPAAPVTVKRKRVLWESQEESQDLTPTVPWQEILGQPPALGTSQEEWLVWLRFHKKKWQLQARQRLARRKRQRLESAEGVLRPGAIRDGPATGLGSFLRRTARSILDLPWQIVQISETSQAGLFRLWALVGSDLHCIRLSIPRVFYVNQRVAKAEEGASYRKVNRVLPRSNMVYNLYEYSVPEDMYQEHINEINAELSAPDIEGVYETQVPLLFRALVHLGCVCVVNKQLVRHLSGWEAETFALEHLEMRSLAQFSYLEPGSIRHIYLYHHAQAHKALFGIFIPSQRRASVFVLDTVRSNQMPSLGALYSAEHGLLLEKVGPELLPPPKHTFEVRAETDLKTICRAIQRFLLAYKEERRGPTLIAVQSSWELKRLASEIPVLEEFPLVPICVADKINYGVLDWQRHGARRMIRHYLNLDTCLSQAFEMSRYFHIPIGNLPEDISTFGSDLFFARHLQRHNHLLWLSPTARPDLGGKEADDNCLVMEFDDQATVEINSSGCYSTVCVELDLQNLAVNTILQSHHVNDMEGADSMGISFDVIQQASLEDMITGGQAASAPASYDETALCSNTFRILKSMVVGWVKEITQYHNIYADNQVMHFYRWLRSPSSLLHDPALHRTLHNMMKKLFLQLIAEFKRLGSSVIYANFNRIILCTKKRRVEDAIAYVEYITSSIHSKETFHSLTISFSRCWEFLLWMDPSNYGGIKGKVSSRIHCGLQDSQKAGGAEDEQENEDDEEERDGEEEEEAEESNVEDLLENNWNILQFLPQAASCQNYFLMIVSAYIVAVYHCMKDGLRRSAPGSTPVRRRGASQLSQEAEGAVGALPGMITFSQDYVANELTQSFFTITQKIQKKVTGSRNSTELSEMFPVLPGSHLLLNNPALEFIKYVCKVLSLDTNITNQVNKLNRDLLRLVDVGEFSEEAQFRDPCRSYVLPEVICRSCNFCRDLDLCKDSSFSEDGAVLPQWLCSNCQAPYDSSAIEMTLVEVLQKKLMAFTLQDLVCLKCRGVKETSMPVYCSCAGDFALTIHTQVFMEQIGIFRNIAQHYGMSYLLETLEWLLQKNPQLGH
Chain of full-length Polθ (aa 1–2590), ATPase activity (O75417 whole entry, the tested form may be a part): as the sequence (O75417 whole entry) above

CC1CCc2nn(CC(=O)N(C)c3ccccc3)c(C(F)(F)F)c21 (stereo not drawn) [Compound 9]
thermal stabilization of WT Polθ (WT Polθ): did not show any thermal stabilization

CN(C(=S)Cn1nc2c(c1C(F)(F)F)CCC2)c1ccccc1 [Compound 14]
thermal stabilization of WT Polθ (WT Polθ): did not show any thermal stabilization

CN(C(=O)Cc1ccc(C(F)(F)F)cc1C(F)(F)F)c1ccccc1 [Compound 15]
microsomal CLint [1]: > 555 µL/min/mg
major routes of metabolism [2]: N-demethylation and hydroxylation of the phenyl ring
major routes of metabolism [3]: N-demethylation and hydroxylation of the phenyl ring

Nc1ccc(C#CCN(C(=O)Cc2ncc(C(F)(F)F)cc2C(F)(F)F)c2ccc(F)cc2)nn1 [RP-6685, N-[3-(6-Aminopyridazin-3-yl)prop-2-ynyl]-2-[3,5-bis(trifluoromethyl)-2-pyridyl]-N-(4-fluorophenyl)acetamide]
activity on the ATPase activity of full-length Polθ [4]: inactive
pIC50 [5]: 6.30
effect on MMEJ in TLR assay [6]: dose-dependent decrease in MMEJ
Papp (in vitro): 6.2 ×10⁻⁶ cm/s
clearance [7]: 36.8 mL/min/kg
tumor growth inhibition [8]: no tumor growth inhibition
difference to vehicle by Day 21 [9]: not statistically significant
MTD at 21 days ([10]; female, CD1 Nude, mouse, in vivo, po, 80 mg/kg BID): 80 mg/kg
body weight change [10, 13]: no significant body weight loss
tolerability [10, 13]: well tolerated
decline of exposure over the week of dosing [11]: 55 – 67%
PD markers micronuclei and γH2AX [12]: modest trend towards increased micronuclei and γH2AX
pIC50 (Pol ε): < 4.00
activity on Pol ε (Pol ε): inactive
activity on Pol λ (Pol λ): inactive
activity on Pol μ (Pol μ): inactive
